Laboratory results published in the supplement of paper PMC10307832.

What was measured:
Assay in all cases: relative viability (nuclei count vs DMSO), 5 days (fraction); higher = more cells survive
QS11 + Foretinib = compound: C1CC2=C(C1)C=C(C=C2)OC3=NC(=C4C(=N3)N(C=N4)CC5=CC=C(C=C5)C6=CC=CC=C6)N[C@@H](CC7=CC=CC=C7)CO [QS11] + COc1cc2c(Oc3ccc(NC(=O)C4(C(=O)Nc5ccc(F)cc5)CC4)cc3F)ccnc2cc1OCCCN1CCOCC1 [Foretinib] (partner 0.25 µM)
In short: (§1)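 For relative viability, nuclei counts in treated wells were divided by those in vehicle wells. Lung cancer cell lines had been pin-tool dosed in 1536-well plates the day after seeding and cultured for 5 days, then fixed and stained in one step (final 0.05% Triton X-100, 1% formaldehyde, 1 ug/ml Hoechst) and imaged at 4×. Doses were one drug alone or a fixed anchor-drug dose plus five library-drug doses (not always all listed) in √10 steps, and values are duplicate-plate medians.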

AZ628 + Tozasertib = compound: CC1=C(C=C(C=C1)NC(=O)C2=CC(=CC=C2)C(C)(C)C#N)NC3=CC4=C(C=C3)N=CN(C4=O)C [AZ628] + Cc1cc(Nc2cc(N3CCN(C)CC3)nc(Sc3ccc(NC(=O)C4CC4)cc3)n2)n[nH]1 [Tozasertib] (partner 0.1 µM)
In short: as §1

AZ628 + Decitabine = compound: CC1=C(C=C(C=C1)NC(=O)C2=CC(=CC=C2)C(C)(C)C#N)NC3=CC4=C(C=C3)N=CN(C4=O)C [AZ628] + Nc1ncn([C@H]2C[C@H](O)[C@@H](CO)O2)c(=O)n1 [Decitabine] (partner 2 µM)
In short: as §1

QS11 + Lapatinib = compound: C1CC2=C(C1)C=C(C=C2)OC3=NC(=C4C(=N3)N(C=N4)CC5=CC=C(C=C5)C6=CC=CC=C6)N[C@@H](CC7=CC=CC=C7)CO [QS11] + CS(=O)(=O)CCNCc1ccc(-c2ccc3ncnc(Nc4ccc(OCc5cccc(F)c5)c(Cl)c4)c3c2)o1 [Lapatinib] (partner 2 µM)
In short: as §1

Cell Line	relative viability (QS11 + Foretinib; first compound 0.08 µM)	relative viability (QS11 + Foretinib; first compound 0.253 µM)	relative viability (QS11 + Foretinib; first compound 0.8 µM)	relative viability (QS11 + Foretinib; first compound 2.53 µM)	relative viability (QS11 + Foretinib; first compound 8 µM)	relative viability (AZ628 + Tozasertib; first compound 0.08 µM)	relative viability (AZ628 + Tozasertib; first compound 0.253 µM)	relative viability (AZ628 + Tozasertib; first compound 0.8 µM)	relative viability (AZ628 + Tozasertib; first compound 2.53 µM)	relative viability (AZ628 + Tozasertib; first compound 8 µM)	relative viability (AZ628 + Decitabine; first compound 0.08 µM)	relative viability (AZ628 + Decitabine; first compound 0.253 µM)	relative viability (AZ628 + Decitabine; first compound 0.8 µM)	relative viability (AZ628 + Decitabine; first compound 2.53 µM)	relative viability (AZ628 + Decitabine; first compound 8 µM)	relative viability (QS11 + Lapatinib; first compound 0.08 µM)	relative viability (QS11 + Lapatinib; first compound 0.253 µM)	relative viability (QS11 + Lapatinib; first compound 0.8 µM)	relative viability (QS11 + Lapatinib; first compound 2.53 µM)	relative viability (QS11 + Lapatinib; first compound 8 µM)
HCC-827	1.05	1.05	0.8	1.02	0.812	0.43	0.468	0.374	0.494	0.344	0.33	0.32	0.348	0.402	0.313	0.176	0.226	0.158	0.243	0.227
201T	1.18	1.08	0.868	1.04	0.632	0.939	0.861	1.04	0.899	0.89	0.869	0.859	0.874	0.911	0.858	1.05	0.835	0.834	1.11	0.895
NCI-H650	1	1.11	0.994	0.924	1.02	0.855	0.713	0.722	0.789	0.446	0.349	0.396	0.46	0.335	0.336	0.83	0.907	1.13	0.801	0.667
PC-3 [JPC-3]	0.972	1.07	0.991	1.03	0.982	0.909	0.909	0.926	0.91	0.798	0.86	0.813	0.924	0.827	0.642	0.464	0.409	0.436	0.5	0.435
NCI-H1395	0.893	0.964	1.02	1	1.09	0.814	0.809	0.753	0.742	0.681	0.678	0.698	0.667	0.647	0.788		0.98	0.992	1.14	0.977
NCI-H1944	0.886	0.967		0.641	0.671	0.26	0.227	0.235	0.249	0.209	0.426	0.434	0.414	0.416	0.282	0.857	0.704		0.89	0.598
NCI-H322M	1.06	1.04	1.06	1.09	1.44	0.468	0.497	0.459	0.474	0.404	0.659	0.716	0.696	0.681	0.688	0.573	0.642	0.559	0.576	0.628
SK-MES-1	0.985	0.783	0.918	0.605	0.778	0.952	0.875	1.01	0.959	0.443	0.448	0.379	0.434	0.43	0.338	0.475	0.432	0.498	0.457	0.45
A-427	1.13	1.15		1.22	1.17	0.155	0.138	0.146	0.142	0.146	0.58	0.582	0.494	0.52	0.451	0.881	1.08		1.12	1.07
NCI-H1355	1.01	0.911	0.775	0.931	1.05	0.548	0.512	0.628	0.495	0.269	0.414	0.322	0.381	0.344	0.265	1.08	0.792	0.688	0.997	1.07
NCI-H2170	1.02	0.987	0.77	1.06	1.06	0.823	0.741	0.693	0.852	0.667	0.448	0.483	0.446	0.439	0.456	0.276	0.262	0.246	0.281	0.316
NCI-H1793	0.796	0.657	0.767	0.573	0.935	0.488	0.335	0.372	0.264	0.18	0.616	0.442	0.458	0.441	0.184	0.807	0.659	0.802	0.925	1.1
NCI-H2023	0.721	0.883	0.686	0.999	0.852	0.308	0.284	0.235	0.212	0.137	0.292	0.229	0.24	0.228	0.252	0.809	0.797	0.747	0.773	0.706
NCI-H520	0.703	1.08	1.12	0.792	0.867	0.407	0.453	0.365	0.422	0.412	0.563	0.488	0.547	0.472	0.382		1.05	0.863	0.99	1.13
NCI-H2087	1.07	1.15		1.15	1.06	0.251	0.174	0.19	0.204	0.132	0.267	0.153	0.184	0.137	0.146	0.996	1.09	0.728	0.651	0.688
NCI-H596	0.979	0.743	0.924	0.841	0.97	0.768	0.827	0.956	0.886	0.848	1.02	1.12	1.13	1.1	0.933	1	1.02	1.02	1.03	1.05
